Patent US9347934B2, “Assays for identifying compounds that modulate bitter taste” (CHROMOCELL CORPORATION, priority 2011, dated 2016)
pEC50: −log10 of the molar value.

Experiments:
Type in all cases: cell-based
TAS2R1 = target: T1, TAS2R1 (Homo sapiens, UniProt Q9NYW7); test: Calcium fluorescence functional assay, TAS2R1 cell line; settings: 20 mM tastant; cell line expressing human TAS2R1 and mouse Gα15
T1 construct: expressed in transfected cells
T1 sequence (Q9NYW7 1-299): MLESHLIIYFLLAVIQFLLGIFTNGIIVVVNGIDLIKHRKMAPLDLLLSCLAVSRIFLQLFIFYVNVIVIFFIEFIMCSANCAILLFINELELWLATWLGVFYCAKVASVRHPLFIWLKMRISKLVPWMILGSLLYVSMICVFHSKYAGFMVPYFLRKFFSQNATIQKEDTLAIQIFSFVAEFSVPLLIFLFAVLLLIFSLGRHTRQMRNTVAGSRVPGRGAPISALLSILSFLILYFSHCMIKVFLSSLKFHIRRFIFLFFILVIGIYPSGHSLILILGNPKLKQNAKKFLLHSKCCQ
Method: (§1) Accordingly, each cell line of the panel expressed a human bitter taste receptor and mouse Gα15 signaling protein.
(§2) Probenecid was not included in the load solution.
(§3) After dye loading, cell plates were placed in a fluorescent plate reader (e.g., FDSS6000 (Hamamatsu, Japan)) and receptor stimulation was measured by adding 50 ul of 3× concentrated ligand/agonist stock. Fluorescence was monitored continuously for 10 s before agonist addition and for 100-250 s after stimulation with agonist.
(§4) Receptor Activation is defined as follows: % Activation=[((Maximum signal fluorescence−Minimum signal fluorescence)−(Maximum control fluorescence−Minimum control fluorescence))/(Maximum buffer fluorescence−Minimum buffer fluorescence)]*100 Functional Response=[(Maximum signal fluorescence−Minimum signal fluorescence)−(Maximum control fluorescence−Minimum control fluorescence)] • Signal Fluorescence: refers to the change in fluorescence seen with addition of ligand • Control fluorescence: refers to the change in fluorescence seen with addition of buffer (negative control) • Calcium signals from ligand and control were normalized to the basal fluorescence of the cells prior to the stimulation.
(§5) A concentration analysis was performed and EC50 values were calculated by nonlinear regression using the formula: Y=Bottom+(Top-Bottom)/(1+10^((Log EC50-X)*Hill Slope)), X=log of dose or concentration, Y=Response (increasing as X increases), Top=maximum signal, Bottom=minimum signal.

TAS2R14 = target: T2, TAS2R14 (Homo sapiens, UniProt Q9NYV8); test: Calcium fluorescence functional assay, TAS2R14 cell line; settings: for TAS2R14 bitter taste receptor activity (changes in intracellular calcium): 20 mM tastant, cell line expressing human TAS2R14 and mouse Gα15
T2 construct: expressed in transfected cells
T2 sequence (Q9NYV8 1-317): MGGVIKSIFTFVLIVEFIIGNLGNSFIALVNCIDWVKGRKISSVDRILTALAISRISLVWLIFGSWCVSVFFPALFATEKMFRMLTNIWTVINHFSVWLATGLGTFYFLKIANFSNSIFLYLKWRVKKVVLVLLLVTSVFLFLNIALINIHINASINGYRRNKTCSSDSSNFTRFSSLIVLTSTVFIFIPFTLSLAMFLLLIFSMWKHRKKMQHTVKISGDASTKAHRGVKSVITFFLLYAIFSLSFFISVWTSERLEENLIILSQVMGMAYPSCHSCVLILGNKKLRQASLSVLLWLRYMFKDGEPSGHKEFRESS
Method: as §1, §2, §3, §4, §5

TAS2R39 = target: T3, TAS2R39 (Homo sapiens, UniProt P59534); test: Calcium fluorescence functional assay, TAS2R39 cell line; settings: 20 mM tastant; cell line expressing human TAS2R39 and mouse Gα15
T3 construct: expressed in transfected cells
T3 sequence (P59534 1-338): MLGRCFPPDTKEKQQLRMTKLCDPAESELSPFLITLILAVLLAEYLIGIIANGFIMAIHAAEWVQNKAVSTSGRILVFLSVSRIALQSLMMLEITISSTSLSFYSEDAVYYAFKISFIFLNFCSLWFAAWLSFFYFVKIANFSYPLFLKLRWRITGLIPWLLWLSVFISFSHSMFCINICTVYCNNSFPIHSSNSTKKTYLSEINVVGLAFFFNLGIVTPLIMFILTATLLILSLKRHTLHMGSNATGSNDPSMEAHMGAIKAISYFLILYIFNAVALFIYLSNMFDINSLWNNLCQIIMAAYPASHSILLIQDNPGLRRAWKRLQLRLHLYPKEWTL
Method: as §1, §2, §3, §4, §5

TAS2R44 = target: T4, TAS2R44 (Homo sapiens, UniProt P59538); test: Calcium fluorescence functional assay, TAS2R44 cell line; settings: for TAS2R44 bitter taste receptor activity (changes in intracellular calcium): 20 mM tastant, cell line expressing human TAS2R44 and mouse Gα15
T4 construct: expressed in transfected cells
T4 sequence (P59538 1-309): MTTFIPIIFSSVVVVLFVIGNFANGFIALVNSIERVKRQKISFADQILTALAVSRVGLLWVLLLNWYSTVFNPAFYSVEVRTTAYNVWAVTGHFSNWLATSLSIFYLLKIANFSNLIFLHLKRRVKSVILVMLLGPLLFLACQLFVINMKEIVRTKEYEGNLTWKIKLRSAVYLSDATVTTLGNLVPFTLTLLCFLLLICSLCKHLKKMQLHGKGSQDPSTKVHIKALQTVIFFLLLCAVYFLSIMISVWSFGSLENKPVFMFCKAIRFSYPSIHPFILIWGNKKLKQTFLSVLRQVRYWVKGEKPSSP
Method: as §1, §2, §3, §4, §5

TAS2R46 = target: T5, TAS2R46 (Homo sapiens, UniProt P59540); test: Calcium fluorescence functional assay, TAS2R46 cell line; settings: 20 mM tastant; cell line expressing human TAS2R46 and mouse Gα15
T5 construct: expressed in transfected cells
T5 sequence (P59540 1-309): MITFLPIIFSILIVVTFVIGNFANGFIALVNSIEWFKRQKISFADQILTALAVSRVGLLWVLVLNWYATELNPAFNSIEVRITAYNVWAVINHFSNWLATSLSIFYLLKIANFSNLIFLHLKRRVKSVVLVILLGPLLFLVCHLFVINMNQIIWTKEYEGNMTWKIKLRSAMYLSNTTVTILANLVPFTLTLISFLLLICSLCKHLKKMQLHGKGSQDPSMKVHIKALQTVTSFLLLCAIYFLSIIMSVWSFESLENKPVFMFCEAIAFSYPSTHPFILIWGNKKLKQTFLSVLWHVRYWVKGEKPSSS
Method: as §1, §2, §3, §4, §5

TAS2R47 = target: T6, TAS2R47 (Homo sapiens, UniProt P59541); test: Calcium fluorescence functional assay, TAS2R47 cell line; settings: 20 mM tastant; cell line expressing human TAS2R47 and mouse Gα15
T6 construct: expressed in transfected cells
T6 sequence (P59541 1-319): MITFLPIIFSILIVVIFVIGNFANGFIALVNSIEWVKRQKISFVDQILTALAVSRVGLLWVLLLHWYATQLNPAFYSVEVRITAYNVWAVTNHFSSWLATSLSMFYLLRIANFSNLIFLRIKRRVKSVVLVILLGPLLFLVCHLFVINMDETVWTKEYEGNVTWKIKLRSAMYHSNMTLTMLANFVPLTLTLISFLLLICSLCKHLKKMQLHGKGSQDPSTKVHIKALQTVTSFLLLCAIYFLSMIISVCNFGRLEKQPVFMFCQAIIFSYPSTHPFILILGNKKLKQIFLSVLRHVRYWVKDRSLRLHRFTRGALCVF
Method: as §1, §2, §3, §4, §5

Structure (SMILES)	TAS2R1 bitter taste receptor activity (changes in intracellular calcium) (TAS2R1)	TAS2R14 bitter taste receptor activity (changes in intracellular calcium) (TAS2R14)	TAS2R39 bitter taste receptor activity (changes in intracellular calcium) (TAS2R39)	TAS2R44 bitter taste receptor activity (changes in intracellular calcium) (TAS2R44)	TAS2R46 bitter taste receptor activity (changes in intracellular calcium) (TAS2R46)	TAS2R47 bitter taste receptor activity (changes in intracellular calcium) (TAS2R47)	pEC50 (TAS2R14; increasing concentrations of KCl, TAS2R14 cell line (FIG. 3), read-out: EC50 value, activation of TAS2R14)	pEC50 (TAS2R44; increasing concentrations of KCl, TAS2R44 cell line (FIG. 3), read-out: EC50 value, activation of TAS2R44)
CC1=CC(=O)NS(=O)(=O)O1 [Acesulfame K]	induced	induced	did not induce	induced	did not induce	did not induce	–	–
[Cl-].[K+] [KCl, potassium chloride]	did not induce	induced	did not induce	induced	did not induce	did not induce	1.82 to 2.30	1.82 to 2.30
CC(O)C(=O)[O-].[K+] (centres unmarked) [Potassium lactate, potassium lactate]	did not induce	induced	did not induce	induced	induced	did not induce	–	–
